Measurements taken from paper PMC4956498 (Planta medica, 2016).
Like-named read-outs stand apart in the source and are kept apart here.

Experiments:
mice = conditions: cited from earlier work; for LD50, acute toxicity to mice: ip administration
Hepa 1c1c7 cells = experiment: Cytotoxicity against Hepa 1c1c7 cells; assay type: cell-based, mouse; conditions: read-out: IC50, concentration that inhibits 50% cell growth
quinone reductase [1] = experiment: Quinone reductase induction assay in Hepa 1c1c7 cells; assay type: cell-based, mouse; conditions: for CD, concentration required to double quinone reductase activity: 48 h
K-Ras = K-Ras (Homo sapiens, UniProt P01116); experiment: K-Ras inhibition assay in HT-29 cells; assay type: cell-based; conditions: for IC50: read-out: K-Ras inhibition IC50
p65 subunit of NF-κB = p65 subunit of NF-κB (Homo sapiens, UniProt Q04206); experiment: cell-based; assay type: cell-based
Chain of p65 subunit of NF-κB (Q04206 whole entry): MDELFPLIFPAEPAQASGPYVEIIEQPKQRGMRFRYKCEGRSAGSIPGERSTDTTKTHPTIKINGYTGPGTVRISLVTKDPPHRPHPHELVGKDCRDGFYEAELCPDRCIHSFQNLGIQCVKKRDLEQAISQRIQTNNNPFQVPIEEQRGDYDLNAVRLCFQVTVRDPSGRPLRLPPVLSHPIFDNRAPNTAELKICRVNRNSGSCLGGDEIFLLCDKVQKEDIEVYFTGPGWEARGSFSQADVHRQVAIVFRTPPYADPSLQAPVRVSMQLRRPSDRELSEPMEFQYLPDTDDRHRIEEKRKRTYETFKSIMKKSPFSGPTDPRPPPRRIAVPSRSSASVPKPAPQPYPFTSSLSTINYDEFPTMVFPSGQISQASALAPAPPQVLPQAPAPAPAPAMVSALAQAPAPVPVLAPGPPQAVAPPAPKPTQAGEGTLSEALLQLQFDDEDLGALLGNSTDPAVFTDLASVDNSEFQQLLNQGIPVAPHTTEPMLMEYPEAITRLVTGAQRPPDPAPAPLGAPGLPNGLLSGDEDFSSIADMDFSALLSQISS

[2] = test system: CCD-112CoN human normal colon cell line; conditions: cited from earlier work
in vitro = conditions: human
quinone reductase [3] = conditions: in vitro; cited from earlier work
[4] = read-out: NF-κB p65 inhibition IC50, in HeLa cells

COc1cc2c(cc1OC)[C@@H]1C(=O)c3ccc4c(c3O[C@@H]1CO2)C=CC(C)(C)O4 [deguelin, reference compound]
LD50, acute toxicity to mice (mice): 5.0 mg/kg

COc1cc2c(cc1OC)C1(O)C(=O)c3c(O)cc4c(c3OC1CO2)C=CC(C)(C)O4 (single isomer, unassigned; (+)) [Compound 11, (+)-3-hydroxy-α-toxicarol]
IC50 (Hepa 1c1c7 cells; Hepa 1c1c7 cell line, 48 h): > 40 µM | CD, concentration required to double quinone reductase activity (quinone reductase [1]): 6.6 µM | K-Ras inhibitory activity (in words) (K-Ras): inactive

(−)-3-hydroxyrotenone [Compound 6]
IC50 (p65 subunit of NF-κB; [4]): 5.3 µM | Cytotoxicity against the CCD-112CoN human normal colon cell line (in words) [2]: lack of cytotoxicity | Lethality to mice (mice; dose of 5 mg/kg (ip)): lethal | IC50 (K-Ras): 3.1 µM

COC1=CC2=C(O[C@H]3COc4cc5c(cc4[C@@]3(O)C2=O)OCO5)C(CC=C(C)C)(CC=C(C)C)C1=O (relative stereo) [Compound 3, (6aS,12aS)-rel-6a,12a-dihydro-12a-hydroxy-10-methoxy-8,8-bis(3-methyl-2-buten-1-yl)-[1]benzopyrano[2,3-c]-1,3-dioxolo[4,5-g][1] benzopyran-9,12(6H, 8H)-dione]
IC50 (Hepa 1c1c7 cells; Hepa 1c1c7 cell line, 48 h): > 40 µM | CI, chemopreventive index (IC50/CD) (quinone reductase [1]): >16.8 | CD, concentration required to double quinone reductase activity (quinone reductase [1]): 2.4 µM

C[S@@+]([O-])CCCCN=C=S [L-sulforaphane, reference compound]
IC50 (Hepa 1c1c7 cells; Mus musculus, Hepa-1c1c7, 48 h): 20.9 µM | CI, chemopreventive index (IC50/CD) (quinone reductase [1]): 40.8 | CD, concentration required to double quinone reductase activity (quinone reductase [1]): 0.51 µM

C=C(C)[C@H]1Cc2c(ccc3c2O[C@@H]2COc4cc(OC)c(OC)cc4[C@@H]2C3=O)O1 [Compound 7, (−)-rotenone]
IC50 (p65 subunit of NF-κB): > 10 µM | Cytotoxicity against the CCD-112CoN human normal colon cell line (in words) [2]: lack of cytotoxicity | LD50, acute toxicity to mice (mice): 2.5 mg/kg | IC50 at 3 days (in vitro): 0.3 µM

caeruleanone C
Quinone reductase (QR) induction (in words) (quinone reductase [3]): potently induce

COc1cc2c(cc1-c1coc3c4c(c(OC)cc3c1=O)OC(C)(C)C=C4)OCO2 [Compound 8, ichthynone]
IC50 (p65 subunit of NF-κB): > 10 µM | IC50 (Hepa 1c1c7 cells; Mus musculus, Hepa-1c1c7, 48 h): 35 µM | IC50 (in vitro): > 10 µM | CI, chemopreventive index (IC50/CD) (quinone reductase [1]): 19.4 | CD, concentration required to double quinone reductase activity (quinone reductase [1]): 1.8 µM

COc1cc2c(c3c1OC(C)(C)C=C3)O[C@H]1COc3cc4c(cc3[C@H]1C2=O)OCO4 [Compound 2, (5aR, 12bR)-5a,12b-dihydro-15-methoxy-2,2-dimethyl-2H-[1, 3]dioxolo[4,5-g]pyrano[2,3-c:6,5-f'] bis[1]benzopyran-13(6H)-one]
IC50 (Hepa 1c1c7 cells; Hepa 1c1c7 cell line, 48 h): 17.8 µM | CI, chemopreventive index (IC50/CD) (quinone reductase [1]): 8.1 | CD, concentration required to double quinone reductase activity (quinone reductase [1]): 2.2 µM

COc1cc2c(c3c1OC(C)(C)C=C3)O[C@H]1COc3cc4c(cc3[C@@]1(O)C2=O)OCO4 [Compound 1, (5aS ,12bS)-5a,12b-dihydro-12b-hydroxy-15-methoxy-2,2-dimethyl-2H-[1, 3]dioxolo[4,5-g]pyrano[2,3-c:6,5-f ‘]bis[1]benzopyran-13(6H)-one]
IC50 (p65 subunit of NF-κB; [4]): > 10 µM | IC50 (Hepa 1c1c7 cells; Hepa 1c1c7 cell line, 48 h): > 40 µM | CD, concentration required to double quinone reductase activity (quinone reductase [1]): 19.8 µM | IC50 (K-Ras): 9.4 µM
